Reference: PMC12186843, “Targeting GABAergic Hypofunction Associated with Schizophrenia: Identification of α1β2γ2GABA‑A Receptor Ligands with Neuroprotective and Antipsychotic Properties” (ACS Chemical Neuroscience, 2025)

Tests used:
PAMPA permeability assay = assay type: in vitro ADME; conditions: pH 7.4, PAMPA, PBS pH 7.4, 100 μM, zolpidem tested as tartrate, read-out: Permeability Pe ± SD
Procedure: PAMPA. The precoated PAMPA Plate System Gentest, obtained from Corning (Tewksbury, MA, USA), was used for the permeability study. The system includes a 96-well receiver filter plate precoated with structured phospholipid layers and a matching donor microplate. Stock solutions of the test compounds and reference drugs were prepared in PBS buffer (pH 7.4) at a final concentration of 100 μM. Each compound solution (200 μL) was added to the donor wells and incubated at room temperature for 5 h. The quantity of molecules that penetrated from the donor wells to the acceptor wells through the phospholipid membrane was determined using UPLC-MS spectrometry (Waters ACQUITY TQD system with the TQ Detector, Waters, Milford, USA) with an internal standard. Permeability coefficients (Pe, cm/s) were calculated according to the formula provided by the manufacturer.

SH-SY5Y cells = experiment: Intracellular calcium concentration after 6-OHDA (Fluo-4); assay type: cell-based, human; conditions: 50 μM pretreatment 1 h, then 6-OHDA 250 μM 1 h
Procedure: 7 (A). Effect of 6-Hydroxydopamine (6-OHDA) on intracellular calcium concentration [Ca^2+] determined by Fluo-4 AM. After pretreatment with tested compounds (50 μM) or vehicle (0.5% DMSO, v/v) for 1 h, the cells were incubated with 6-Hydroxydopamine (6-OHDA, 250 μM) for 1 h. 6-OHDA control: cells treated with 250 μM of 6-OHDA. […]. DMSO control: cells treated with 0.5% DMSO only. Data are presented as the mean ± SD from 2–3 independent experiments. Experiments were carried on with ImageXpress Micro XLS (Molecular Devices). (B) The level of ROS generation was determined by Cell ROX dye. After pretreatment with tested compounds (50 μM) or vehicle (0.5% DMSO, v/v) for 1 h, the cells were incubated with hydrogen peroxide (H2O2, 300 μM) for 1 h. H2O2 control: cells treated with H2O2 (300 μM). DMSO control: cells treated with 0.5% DMSO only. Data are presented as the mean ± SD from 2–3 independent experiments. Experiments were carried on with the ImageXpress Micro XLS (Molecular Devices).
The SH-SY5Y human neuroblastoma cell line was maintained according to established protocols. The cells, obtained from the American Type Culture Collection (ATCC), were cultured in Dulbecco’s Modified Eagle’s Medium (DMEM, high glucose; Thermo Fisher), supplemented with 10% fetal bovine serum (Thermo Fisher), 100 IU/ml penicillin (Merck), and 100 μg/mL streptomycin (Merck). They were grown in 75 cm^2 flasks (Nunc) at 37 °C in a humidified atmosphere containing 5% CO2. For compound evaluation, SH-SY5Y cells were plated in 96-well plates (Falcon) at a density of 2 × 10^4 cells per well. The cells were allowed to adhere and grow for 24 h in an incubator set to 37 °C and 5% CO2 before starting the experiments. Stock solutions of both test and reference compounds were prepared at a concentration of 10^–2 M. A minimum of 1 mg of each compound was dissolved in dimethyl sulfoxide (DMSO). Serial dilutions were made in DMSO, then further diluted in PBS, mixed, and added to the cell culture medium.
The intracellular Ca^2+ levels were assessed using a homogeneous cell-based assay with the Fluo-4 Direct Calcium Assay Kit (Thermo Fisher). Following incubation with the tested compounds, the supernatant was discarded, and the cells were incubated with 1 μM Fluo-4/AM in FluoroBrite DMEM (Thermo Fisher) for 1 h at 37 °C. The results were expressed as a percentage relative to the control (DMSO). Fluorescence intensity was recorded using the ImageXpress Micro XLS system (Molecular Devices).

Cc1ccc2nc(-c3ccc(F)cc3)c(CC(=O)N3CCCC3)n2c1.O=C(O)C(O)C(O)C(=O)O [Compound 17, 2-(4-Fluorophenyl)-6-methyl-3-(2-oxo-2-(pyrrolidin-1-yl)-ethyl)imidazo[1,2-a]pyridin-1-ium 3-carboxy-2,3-dihydroxy-propanoate]
Papp at 5 h, 100 μM (PAMPA permeability assay): > 4 ×10⁻⁶ cm/s | Reduction of intracellular calcium levels (SH-SY5Y cells): 48%
